Results published in ChEMBL document CHEMBL5247641, “Discovery of Potent DYRK2 Inhibitors with High Selectivity, Great Solubility, and Excellent Safety Properties for the Treatment of Prostate Cancer” (J Med Chem, 2023).
Calls of active or inactive are those of the source. The calls are words filed in the database; no cut-off is given here.

Experiments:
DU-145 [1] = experiment: Induction of cell cycle arrest in human DU-145 cells assessed as accumulation of cells at G1 phase at 1 uM incubated for 24 hrs by propidium iodide based flow cytometric analysis (Rvb= 53.46%); format: functional
[2] = Metabolic stability in human liver microsomes assessed as intrinsic clearance in presence of NADPH incubated up to 60 mins by LC-MS/MS analysis; format: ADME, Microsome; details: read-out: CLH
DU-145 [3] = experiment: Antitumor activity against human DU-145 xenografted in BALB/c nude mouse as downregulation of c-MYC level in tumor at 100 to 200 mg/kg,po administrated once daily for 21 days by Western blot analysis; format: functional, organism-based; details: dose 100-200 mg/kg, time 21.0 day
DU-145 [4] = experiment: Induction of cell cycle arrest in human DU-145 cells assessed as accumulation of cells at G2 phase at 1 uM incubated for 24 hrs by propidium iodide based flow cytometric analysis (Rvb= 17.52%); format: functional
DU-145 [5] = experiment: Induction of apoptosis in human DU-145 cells assessed as increase in p53 level at 2 to 8 uM incubated for 24 hrs by Western blot analysis; format: functional, cell-based; details: dose 2-8 µM
DU-145 [6] = experiment: Induction of cell cycle arrest in human DU-145 cells assessed as accumulation of cells at G1 phase at 2 uM incubated for 24 hrs by propidium iodide based flow cytometric analysis (Rvb= 53.46%); format: functional
[7] = Cytotoxicity against human RWPE-1 cells assessed as inhibition of cell proliferation incubated for 3 days by CCK-8 assay; format: toxicity, cell-based
[8] = Thermodynamic water solubility of compound by HPLC anlaysis; format: physicochemical; details: read-out: Therm_solubility
DU-145 [9] = experiment: Antitumor activity against human DU-145 xenografted in BALB/c nude mouse as upregulation of p53 level in tumor at 100 to 200 mg/kg,po administrated once daily for 21 days by Western blot analysis; format: functional, organism-based; details: dose 100-200 mg/kg, time 21.0 day
DU-145 [10] = experiment: Induction of cell cycle arrest in human DU-145 cells assessed as accumulation of cells at S phase at 4 uM incubated for 24 hrs by propidium iodide based flow cytometric analysis (Rvb= 29.02%); format: functional
DU-145 [11] = experiment: Induction of cell cycle arrest in human DU-145 cells assessed as accumulation of cells at G2 phase at 4 uM incubated for 24 hrs by propidium iodide based flow cytometric analysis (Rvb= 17.52%); format: functional
DU-145 [12] = experiment: Antitumor activity against human DU-145 xenografted in BALB/c nude mouse as inhibition of tumor cell proliferation at 100 to 200 mg/kg,po administrated once daily for 21 days by Ki67 staining based microscopic analysis; format: functional, organism-based; details: dose 100-200 mg/kg, time 21.0 day
[13] = Acute toxicity in ICR mouse assessed as change in liver weight at 1000 to 10000 mg/kg,po and measured after 14 days; format: organism-based; details: in vivo, 336 h, dose 1000-10000 mg/kg, time 14 day
[14] = Acute toxicity in ICR mouse assessed as appearance of lesions in lung at 5000 to 10000 mg/kg,po and measured after 14 days by H and E staining based microscopic analysis; format: organism-based; details: in vivo, 336 h, dose 5000-10000 mg/kg, time 14 day
CWR22R [15] = experiment: Induction of cell cycle arrest in human 22Rv1 cells assessed as accumulation of cells at G2 phase at 2 uM incubated for 24 hrs by propidium iodide based flow cytometric analysis (Rvb=24.21 %); format: functional
[16] = Acute toxicity in ICR mouse assessed as abnormal body weight change at 1000 to 10000 mg/kg,po and measured upto 14 days; format: organism-based; details: in vivo, 336 h, dose 1000-10000 mg/kg, time < 14 day
DU-145 [17] = experiment: Antiproliferative activity against human DU-145 cells assessed as inhibition of clone formation at 1 to 8 uM incubated for 2 weeks by crystal violet staining based assay; format: functional, cell-based; details: dose 1-8 µM
[18] = Acute toxicity in ICR mouse assessed as appearance of lesions in heart at 5000 to 10000 mg/kg,po and measured after 14 days by H and E staining based microscopic analysis; format: organism-based; details: in vivo, 336 h, dose 5000-10000 mg/kg, time 14 day
[19] = Acute toxicity in ICR mouse assessed as change in lung weight at 1000 to 10000 mg/kg,po and measured after 14 days; format: organism-based; details: in vivo, 336 h, dose 1000-10000 mg/kg, time 14 day
DU-145 [20] = experiment: Antiproliferative activity against human DU-145 cells assessed as reduction in c-Myc expression level at 2 to 8 uM incubated for 24 hrs by Western blot analysis; format: functional, cell-based; details: dose 2-8 µM
CWR22R [21] = experiment: Induction of cell cycle arrest in human 22Rv1 cells assessed as accumulation of cells at G1 phase at 2 uM incubated for 24 hrs by propidium iodide based flow cytometric analysis (Rvb= 55.28%); format: functional
CWR22R [22] = experiment: Induction of cell cycle arrest in human 22Rv1 cells assessed as accumulation of cells at S phase at 4 uM incubated for 24 hrs by propidium iodide based flow cytometric analysis (Rvb=20.51 %); format: functional
DU-145 [23] = experiment: Antitumor activity against human DU-145 xenografted in BALB/c nude mouse as downregulation of p-4E-BP1 level in tumor at 100 to 200 mg/kg,po administrated once daily for 21 days by Western blot analysis; format: functional, organism-based; details: dose 100-200 mg/kg, time 21.0 day
DU-145 [24] = experiment: Antitumor activity against human DU-145 xenografted in BALB/c nude mouse assessed as tumor growth inhibition at 100 mg/kg,po qd for 21 days; format: functional, organism-based; details: time 21.0 day
CWR22R [25] = experiment: Antiproliferative activity against human 22Rv1 cells assessed as cell growth inhibition at 2 to 8 uM incubated for 5 days by microplate reader analysis; format: functional, cell-based; details: dose 2-8 µM, time 5.0 day
CWR22R [26] = experiment: Antiproliferative activity against human 22Rv1 cells assessed as reduction in c-Myc expression level at 2 to 8 uM incubated for 24 hrs by Western blot analysis; format: functional, cell-based; details: dose 2-8 µM
DU-145 [27] = experiment: Antitumor activity against human DU-145 xenografted in BALB/c nude mouse assessed as tumor growth inhibition at 200 mg/kg,po administrated once daily for 21 days; format: functional, organism-based; details: time 21.0 day
DU-145 [28] = experiment: Induction of cell cycle arrest in human DU-145 cells assessed as accumulation of cells at G2 phase at 2 uM incubated for 24 hrs by propidium iodide based flow cytometric analysis (Rvb= 17.52%); format: functional
DU-145 [29] = experiment: Induction of apoptosis in human DU-145 cells assessed as apoptotis rate at 8 uM incubated for 24 hrs by Annexin V-FITC and PI staining based flow cytometry (Rvb= 4.36%); format: functional
[30] = Toxicity in BALB/c nude mouse xenografted with human DU-145 assessed as body weight change at 100 to 200 mg/kg,po qd administrated once daily for 21 days; format: organism-based; details: in vivo, 504 h, dose 100-200 mg/kg, time 21 day
DU-145 [31] = experiment: Antimigratory activity against human DU-145 cells assessed as inhibition of cell migration at 1 to 8 uM incubated for 24 hrs by transwell migration assay; format: functional, cell-based; details: dose 1-8 µM
DU-145 [32] = experiment: Antiproliferative activity against human DU-145 cells assessed as cell growth inhibition at 2 to 8 uM incubated for 5 days by microplate reader analysis; format: functional, cell-based; details: dose 2-8 µM, time 5.0 day

Cl.O=C(c1ccc(Nc2ncc(F)c(-c3ccc4scnc4c3)n2)nc1)N1CCNCC1
Activity (DU-145 [1]): 54.77% | CLint scaled [2]: 16 mL/min/kg | Activity (DU-145 [3]): Active | Activity (DU-145 [4]): 17.18% | Activity (DU-145 [5]): Active | Activity (DU-145 [6]): 61.07% | IC50 at 3 days [7]: 25 µM | solubility thermodynamic [8]: 29.5 mg/mL | Activity (DU-145 [9]): Active | Activity (DU-145 [10]): 19.37% | Activity (DU-145 [11]): 12.12% | Activity (DU-145 [12]): Active | Activity [13]: Non-Toxic | Activity [14]: Non-Toxic | Activity (CWR22R [15]): 22.88% | Activity [16]: Non-Toxic | Activity (DU-145 [17]): Active | Activity [18]: Non-Toxic | Activity [19]: Non-Toxic | Activity (DU-145 [20]): Active | Activity (CWR22R [21]): 62.88% | Activity (CWR22R [22]): 13.85% | Activity (DU-145 [23]): Active | Activity (DU-145 [24]): Active | Activity (CWR22R [25]): Active | Activity (CWR22R [26]): Active | Activity (DU-145 [27]): Active | Activity (DU-145 [28]): 12.78% | Activity (DU-145 [29]): 11.98% | Activity [30]: Non-Toxic | Activity (DU-145 [31]): Active | Activity (DU-145 [32]): Active
